Laboratory results as given in publication PMC11249646, “Small-Molecule Disruptors of the Interaction between Calcium- and Integrin-Binding Protein 1 and Integrin αIIbβ3 as Novel Antiplatelet Agents” (ACS Pharmacology & Translational Science, 2024).
Read-outs that look alike come from different tables or passages of the source.

What was measured:
Type in all cases: binding
[1] = target: T1, CIB1 and αIIb interaction (GST-CIB1 : F-αIIb peptide) (Homo sapiens, UniProt Q99828); test: FP assay, 384-well format (screen); set-up: 384-well SCREEN Efficacy (%): concentration or dose not given beside the values; settings: for IC50: read-out: 384-well SCREEN IC50
T1 construct: made in house; host or cells: BL-21 plus RIL cells (E. coli)
T1 sequence (Q99828 1-191): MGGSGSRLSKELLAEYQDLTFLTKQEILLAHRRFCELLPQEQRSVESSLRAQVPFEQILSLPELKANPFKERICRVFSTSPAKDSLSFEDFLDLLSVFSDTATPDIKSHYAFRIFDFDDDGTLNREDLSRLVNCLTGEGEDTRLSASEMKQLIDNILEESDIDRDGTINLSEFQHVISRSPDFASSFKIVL

[2] = target: T2, CIB1 and αIIb interaction (CIB1-GST : F-αIIb peptide) (Homo sapiens, UniProt Q99828); test: FP assay, 1536-well qHTS format (primary and confirmatory screen); settings: for CONFIRMATORY SCREEN Confirm?: YES/NO call
T2 construct: made in house; host or cells: BL-21 plus RIL cells (E. coli)
T2 sequence (Q99828 1-191): T1 sequence (Q99828 1-191)

[3] = target: T3, GST-CIB1 : F-scrambled peptide (Homo sapiens, UniProt Q99828); test: FP scrambled-peptide counter screen, 384-well format; settings: for 384-well COUNTERSCREEN Confirm?: *: Curve in opposite direction; for IC50: read-out: 384-well COUNTERSCREEN IC50
T3 construct: made in house; host or cells: BL-21 plus RIL cells (E. coli)
T3 sequence (Q99828 1-191): T1 sequence (Q99828 1-191)

[4] = target: T3, GST-CIB1 : F-scrambled peptide; test: FP scrambled-peptide counter screen, 1536-well format; settings: for COUNTERSCREEN Confirm?: YES/NO call
[5] = qHTS primary screen hits, Table S2, negative = inhibition
[6] = qHTS primary screen hits, Table S2, negative sign = inhibitory curve
[7] = confirmatory screen, qHTS curve class, negative sign = inhibitory curve
[8] = confirmatory screen, negative = inhibition
[9] = confirmatory screen, read-out: CONFIRMATORY SCREEN IC50
[10] = scrambled-peptide counterscreen
[11] = scrambled-peptide counterscreen, read-out: COUNTERSCREEN IC50
[12] = qHTS primary screen hits, Table S2, read-out: IC50
[13] = qHTS FP screen hits, Table S2, negative = inhibition
[14] = qHTS FP screen hits, Table S2, read-out: IC50
[15] = qHTS FP screen hits, Table S2, one class per curve where COUNT > 1, negative sign = inhibitory curve
[16] = scrambled-peptide counterscreen, qHTS curve class
[17] = qHTS primary screen hits, Table S2, negative sign = inhibitory curve, several classes where COUNT > 1

SMILES | 384-well SCREEN Efficacy (%) ([1]; F-αIIb peptide) | 384-well SCREEN Confirm? ([1]; F-αIIb peptide, YES/NO) | Efficacy (%) [2, 5] [%] | 384-well COUNTERSCREEN Efficacy (%) ([3]; F-scrambled peptide) | IC50 ([1]; F-αIIb peptide) [µM] | CONFIRMATORY SCREEN Confirm? ([2]; confirmatory screen) | CONFIRMATORY SCREEN Curve Class [2, 7] | CONFIRMATORY SCREEN Efficacy (%) [2, 8] [%] | IC50 [2, 9] [µM] | COUNTERSCREEN Efficacy (%) [4, 10] [%] | COUNTERSCREEN Confirm? [4, 10] | IC50 ([3]; F-scrambled peptide) [µM] | IC50 [2, 12] [µM] | COUNTERSCREEN Curve Class [4, 16] | further results
Cc1nc(N=Nc2cc(S(=O)(=O)O)c3cc([N+](=O)[O-])cc(S(=O)(=O)O)c3c2)c(COP(=O)(O)O)c(C=O)c1O (stereo in doubt) [NCGC00162294-03] | 70 | YES | -64 | 70 |  |  |  |  |  |  |  |  |  |  | Curve Class [2, 6]: -1.2
CCc1oc2ccccc2c1C(=O)c1cc(Br)c(O)c(Br)c1 [NCGC00013895-08] | 39 | YES |  | 60 | 25.1 | YES | -1.2 | -66 | 22.4 | 52 | YES | 12.6 |  |  | IC50 [4, 11]: 20 µM; 384-well COUNTERSCREEN Confirm? ([3]; F-scrambled peptide): YES
O=C(O)C1=CC(=C(c2ccc(O)c(C(=O)O)c2)c2ccc(O)c(C(=O)O)c2)C=CC1=O [NCGC00015040-05] | 45 | YES | -33 | 15 | 4.6 |  |  |  |  |  |  | > 120 | 3.2 |  | Curve Class [2, 6]: -1.2; 384-well COUNTERSCREEN Confirm? ([3]; F-scrambled peptide): YES
OCCN(CCO)c1nc(N2CCCCC2)c2nc(N(CCO)CCO)nc(N3CCCCC3)c2n1 [NCGC00015385-15] | 175 | YES | -172 | 200 | 22.2 |  |  |  |  |  |  | 22.2 | 12.7 |  | Curve Class [2, 6]: -1.1
Cl.O=C1c2c(O)ccc(O)c2C(=O)c2c(NCCNCCO)ccc(NCCNCCO)c21 [NCGC00015693-04] | 80 | YES |  | 75 | 4.1 |  |  |  |  |  |  | 5.8 |  |  | Efficacy (%) (confirmatory screen) ([2]; confirmatory screen): -112%; Confirm? (confirmatory screen) ([2]; confirmatory screen, YES/NO): YES; Curve Class (confirmatory screen) [2, 7]: -1.1; IC50 ([2]; confirmatory screen, read-out: IC50 [μM] (confirmatory screen)): 20 µM; Efficacy (%) [2, 13]: -85%; IC50 [2, 14]: 25.2 µM; Efficacy (%) (counterscreen) ([4]; counterscreen): -125%; Curve Class (counterscreen) ([4]; counterscreen, qHTS curve class, negative sign = inhibitory curve): -1.1; IC50 ([4]; counterscreen, read-out: IC50 [μM] (counterscreen)): 20 µM
CC[C@@H](CO)NC(=O)[C@@H]1C=C2c3cccc4[nH]cc(c34)C[C@H]2N(C)C1.O=C(O)/C=C\C(=O)O [NCGC00017258-05] | 80 | YES |  | 80 | 60 | YES | -2.4 | -34 |  | -16 | YES |  |  | 4 | Efficacy (%) [2, 13]: -131%; Curve Class [2, 15]: -2.1
NS(=O)(=O)c1cccc2c1c([N+](=O)[O-])cc1nc(O)c([O-])nc12.[Na+] [NCGC00024961-03] | 70 | YES | -46 | 70 | 9.1 |  |  |  |  |  |  | 7.4 | 5 |  | Curve Class [2, 6]: -1.2
Cc1ccc(C)n1-c1cccc(C(=O)O)c1.O=C(O)C(F)(F)F [NCGC00060597-02] | 30 | YES |  | 24 | 17.7 | YES | -1.2 | -42 | 8.9 | -11 | YES | > 120 |  | 4 | 384-well COUNTERSCREEN Confirm? ([3]; F-scrambled peptide): YES
C=CCNc1oc(-c2cccc3ccccc23)nc1C#N.O=C(O)C(F)(F)F [NCGC00068824-04] | 71 | YES |  | 51 | 4 | YES | -1.2 | -78 | 15.8 | -19 | YES | 4.5 |  | 4 | Efficacy (%) [2, 13]: -38%; Curve Class [2, 15]: -1.2; IC50 [2, 14]: 17.8 µM
Oc1c(Cl)cc(Cl)c(Cl)c1Cc1c(O)c(Cl)cc(Cl)c1Cl [NCGC00091195-08] | 55 |  | -59 | 205 | > 120 | YES | -1.4 | -38 | 7.1 | 106 | YES | 31.6 | 50.1 |  | Curve Class [2, 17]: -2.2; IC50 [4, 11]: 89.1 µM
Brc1c(Br)c(Br)c2[nH]nnc2c1Br [NCGC00092352-04, 4,5,6,7-tetrabromobenzotriazole, reference compound] | 40 | YES |  | 35 | 4.7 | YES | -1.2 | -43 | 2.8 | 79 | YES | > 120 |  | 3 | IC50 ([2]; 1536-well qHTS of 14,782 compounds, read-out: intraplate control IC50): ~10.7 µM; IC50 ([2]; 1536-well, LOPAC1280 pilot screen, 0.85 μM GST-CIB1, 100 nM F-αIIb, RT 15 minutes): double-digit micromolar inhibitor; Efficacy (%) [2, 13]: -49%; Curve Class [2, 15]: -1.2; IC50 [2, 14]: 14.1 µM; IC50 [4, 11]: 79.4 µM; 384-well COUNTERSCREEN Confirm? ([3]; F-scrambled peptide): YES
CN1CCCN=C1/C=C/c1cccs1 [NCGC00094552-04] |  |  |  |  | > 120 |  |  |  | 50.1 |  |  | 4.6 | 24.1 |  | 
CN1CCCN=C1/C=C/c1cccs1.O=C(O)c1cc2ccccc2c(Cc2c(O)c(C(=O)O)cc3ccccc23)c1O [NCGC00094552-04] | 24 |  | -25 | 40 |  | YES | -2.4 | -39 |  | 0 | YES |  |  | 4 | Curve Class [2, 17]: -2.4
CCCCCc1c2c(cc(O)c1C(=O)O)OC(=O)c1c(cc(OC)cc1C(=O)CCCC)O2.O=C(O)C(F)(F)F [NCGC00095570-05] | 38 | YES | -33 | 58 | 8.9 | YES | -1.2 | -60 | 11.2 | -14 | YES | 50.1 | 12.6 | 4 | Curve Class [2, 17]: -1.4; 384-well COUNTERSCREEN Confirm? ([3]; F-scrambled peptide): YES
Cc1nc(/N=N\c2cc(S(=O)(=O)O)c3cc([N+](=O)[O-])cc(S(=O)(=O)O)c3c2)c(COP(=O)(O)O)c(C=O)c1O [NCGC00162294-03] |  |  |  |  | 1.7 |  |  |  |  |  |  | 3.3 | 7.9 |  | 
Nc1c(S(=O)(=O)[O-])cc(Nc2ccc(Nc3nc(Cl)nc(Nc4ccc(S(=O)(=O)O)cc4)n3)c(S(=O)(=O)O)c2)c2c1C(=O)c1ccccc1C2=O.[Na+] [NCGC00162329-02] | 60 | YES | -64 | 60 | 1 |  |  |  |  |  |  | 1.3 | 1.4 |  | Curve Class [2, 6]: -1.2
O=[N+]([O-])c1ccc2c(c1)S(=O)(=O)C=C2 [NCGC00167848-02] |  |  |  |  | 120 |  |  |  |  |  |  | > 120 | 0.7 |  | 384-well SCREEN Confirm? [1]: YES; 384-well SCREEN Efficacy (%) [1]: 50%; Curve Class [2]: -1.4; Efficacy (%) [2]: -37%; 384-well COUNTERSCREEN Efficacy (%) [3]: 45%
CN(C)[C@@H]1CCN(c2cccc(Nc3nn4c(=O)c5ccccc5nc4s3)c2)C1.Cl [NCGC00189223-01] | 48 | YES |  | 34 | 15.8 |  |  |  |  |  |  | 14.1 |  |  | 
